Among the data in PMC7833800 (Journal of Virological Methods, 2020) are IC50 values, retold here.

Read-outs that look alike come from different tables or passages of the source.

This assay deals with SARS-CoV RTC (nsp12 in complex with nsp7L8) (Severe acute respiratory syndrome coronavirus, UniProt P0C6X7). The assay can be described thus: biochemical.

The molecule `O=c1ccn([C@@H]2O[C@H](COP(=O)(O)OP(=O)(O)OP(=O)(O)O)C[C@H]2O)c(=O)[nH]1` [3’dUTP] gave a half-maximal inhibitory concentration (IC50) of 6.7 µM. That is a single-digit micromolar value. As for `O=c1cc(-c2ccc(O)cc2)oc2cc(O)cc(O)c12` [Apigenin], for the setting “IC50”, the midpoint of inhibition, the IC50, lay at 96 µM. As for `O=c1cc(-c2ccc(Oc3c(O)cc4oc(-c5ccc(O)cc5)cc(=O)c4c3O)cc2)oc2cc(O)cc(O)c12` [Hinokiflavone], for the setting “IC50”, half-maximal inhibition (IC50) was put at 0.95 µM.

Usually IC50 stands for the midpoint of a concentration-inhibition curve.
